Laboratory results: patent publication US20240092744A1, “TRICYCLIC COMPOUND, AND PREPARATION METHOD THEREFOR AND MEDICAL USE THEREOF” (THE NATIONAL INSTITUTES OF PHARMACEUTICAL R&D CO., LTD., priority 2020, published 2024)

Experiments:
[1] = Determination of aldehyde capture rate (nonenal as model aldehyde, HPLC quantification); settings: for Aldehyde consumption (100%): 0.05 mM compound, 0.025 mM nonenal, room temperature; for Capture rate (slope of the capture curve per unit time): higher absolute value of the slope = higher capture rate
Experimental: In the aldehyde capture test disclosed in the present invention, the stable lipid metabolite, nonenal, was used as the model aldehyde to react with the compound of the Example. The specific protocol was as follows.
0.05 mM of the compounds of the Examples of the present invention were precisely weighed respectively and dissolved in 1.2 mL of a mixed solution (v/v=1:1) of triolein (Aladdin, G105172-5g) and linoleic acid (Aladdin, L100442-25g), respectively. 2.5 mL of PBS (Solarbio, P1020) solution containing 20% Captisol® (Aladdin, Cl25030-25 g) was added, and the solution was stirred at room temperature overnight. After the example compound was completely dissolved, 0.025 mM nonenal (Sigma, 255653-5G) was added, and the solution was stirred vigorously at room temperature. […] The solution was mixed vigorously by vortex for 2 minutes, and centrifuged at a low speed of 1000 r/min for 3 minutes. The supernatant was transferred to an injection vial. The nonenal in the reaction mixture was analyzed quantitatively by high performance liquid chromatography. The adduct resulted from the example compound of the present invention and nonenal was analyzed qualitatively by high performance liquid chromatography-mass spectrometry.
Liquid Chromatograph: Waters I Class;
Column: ACQUITY UPLC HSS T3 1.8 μm;
Column temperature: 40° C.;
Liquid chromatography condition: mobile phase A: acetonitrile containing 0.1% formic acid; B: water containing 0.1% formic acid;
Injection volume: 0.5 mL.
Gradient of the mobile phases: […]
In the developed detection method, the retention time of the model aldehyde nonenal was 2.42 minutes. • Mass spectrometry conditions: • Mass spectrometer: Waters TQ-S micro • Ion source: ESI^+ • Capillary voltage: 0.5 kV • Cone voltage: 10V • Source temperature: 150° C. • Degassing temperature: 500° C., degassing flow: 1000 L/Hr • SIM mode • m/z: 225.24 [(mExample 1−OH)+H]^+, 365.42 [madduct 1+H]^+
The time-varying diagram of the capture reaction of the compounds of the examples of the present invention to nonenal is shown in FIG. 1.

[2] = system: noninfectious uveitis animal model; assay: Therapeutic effect in lipopolysaccharide-induced noninfectious uveitis animal model (eye drops); assay type: in vivo, Female lewis rats
Experimental: Female lewis rats were used as the research subjects. Lewis rats (Vital River) were randomly divided into groups (4 animals per group, a total of 8 eyes). The groups are as follows: normal control group, model control group, and example administration group. The inflammation model was established in these groups except for the normal control group.
Formulation of eye drops: • (1) Formulation of drug vehicle stock solution: […] of Na2HPO4.12H2O (Xilong Scientific, 9009012-01-09), 19 mg of NaH2PO4.2H2O (Xilong Scientific, 9009013-01-09) and 9500 mg of β-cyclodextrin (Sigma, E1930253) were precisely weighed and dissolved in 30 mL sterile water for injection (Beijing CR Double-Crane), followed by addition of […] of PEG-400 (Solarbio, 222U011). The solution was mixed well, and made up to 50 mL with water for injection. • (2) Formulation of drug solution: 10 mg of the compound of Example 2 of the present invention was weighed and dissolved in 1 mL of the vehicle stock solution, and the resulting solution was made up to 2 mL with water for injection. The content of each substance is as follows: Na2HPO4.12H2O 0.83%, NaH2PO4.2H2O 0.017%, β-cyclodextrin 9.5%, PEG-400 5.0%, active compound 0.5%. • (3) The pH value of the formulated drug solution was determined by pH test paper. If the pH value was not within 7.3±0.05, then it was adjusted to this range with 1 N HCl or 1 N NaOH. […]
The animal model was a noninfectious uveitis animal model established by intraperitoneal injection of lipopolysaccharide (derived from Escherichia coli, 055:B5, Sigma, L2880-100MG, injection dose: 2 mg/kg). […] The ocular inflammation of the animals in each group was examined with a slit lamp microscope (Jiangxi Jiangfeng, LYL-S), and evaluated according to the McDonald-Shadduck scoring system (GB/T 28538-2012).
The animals were sacrificed, and the bilateral eyeballs were enucleated. […] Quantitative analysis of total protein in aqueous humor was performed on the supernatant by a BCA protein quantification kit (Beyotime, P0010). […]

[3] = system: allergic conjunctivitis animal model; assay: Therapeutic effect in C48/80-induced allergic conjunctivitis animal model; assay type: in vivo, Female Wistar rats; settings: Wistar rats, 10 μL per eye, examined 20 minutes after administration
Description: C48/80 is a polymer formed by the condensation of N-methyl-p-methoxyphenethylamine with formaldehyde, which acts directly on G protein and induces mast cell degranulation. After degranulation, the mast cell releases active substances such as histamine and kinin, which can cause acute type I allergic reactions such as telangiectasia and enhanced permeability. It can cause allergic conjunctivitis if applied topically to the ocular surface.
Female Wistar rats were used as the research subjects. Wistar rats (Vital River) were randomly divided into groups (5 animals per group, a total of 10 eyes). The groups are as follows: normal control group, model control group, positive drug group, and example administration group. The inflammation model was established in these groups except for the normal control group. Emedastine Difumarate Eye Drops (Emadine®, Alcon, H20181192) was used as the positive drug. Model establishment, administration and evaluation processes were as follows. […]
After 10 minutes of stimulation, different drug treatments were carried out according to the group settings. […] The clinical score was evaluated individually on the eyes of each animal according to the McDonald-Shadduck scoring system (GB/T 28538-2012). […]

SMILES | Aldehyde consumption (100%) ([1]; 135 minutes) | Capture rate (slope of the capture curve per unit time) ([1]; 135 minutes) | Aldehyde consumption (100%) ([1]; 180 minutes) | Capture rate (slope of the capture curve per unit time) ([1]; 180 minutes) | Ocular score (McDonald-Shadduck ocular inflammation score) ([2]; 0.5% eye drops, 20 μL/eye, 24 hours after LPS modeling, mean ± standard deviation, model control 17.0 ± 6.4, normal control 4.5 ± 0.8) | Protein concentration in aqueous humor ([2]; 0.5% eye drops, 20 μL/eye, 24 hours after LPS modeling, mean ± standard deviation, model control 1062.7 ± 423.6, normal control 225.5 ± 65.4) | Therapeutic effect in ocular inflammation animal model (in words) ([2]; LPS-induced uveitis, Lewis rats, eye drops) | Therapeutic effect on allergic conjunctivitis (McDonald-Shadduck score, FIG. 2, in words) [3]
Cn1c2ccccc2c2cc(N)c(C(C)(C)O)nc21 [Example 2, 2-(3-Amino-9-methyl-9H-pyrido[2,3-b]indol-2-yl)propan-2-ol] | 43.48% | −0.34 | 57.75% | −0.31 | 8.6 ± 1.1 | 376.4 ± 164.0 µg/mL | showing a therapeutic effect | 
CC(C)(O)c1cc2c(cc1N)Oc1ccccc1O2 [Example 4, 2-(3-Aminodibenzo[b,e][1,4]dioxin-2-yl)propan-2-ol] | 38.33% | −0.27 | 48.10% | −0.23 |  |  |  | good therapeutic effect
